IC50 data for 23 compounds are collected here from US20250059185A1 (Hoffmann-La Roche Inc., priority 2021, published 2025).

Structures are written as SMILES.

The target of the experiment is MAGL (Homo sapiens (Human), UniProt Q99685). Description: 2-AG assay (MAGL inhibitory activity, hydrolysis of 2-arachidonoylglycerol followed by mass spectrometry). The format is biochemical. To be noted: 50 pM MAGL protein, 15 min pre-incubation, 30 min incubation at RT. The source says: Compounds of formula (II) were profiled for MAGL inhibitory activity by determining the enzymatic activity by following the hydrolysis of the natural substrate 2-arachidonoylglycerol (2-AG) resulting in arachidonic acid, which can be followed by mass spectrometry. This assay is hereinafter abbreviated “2-AG assay”.
Chain of MAGL (Q99685 whole entry, species assumed): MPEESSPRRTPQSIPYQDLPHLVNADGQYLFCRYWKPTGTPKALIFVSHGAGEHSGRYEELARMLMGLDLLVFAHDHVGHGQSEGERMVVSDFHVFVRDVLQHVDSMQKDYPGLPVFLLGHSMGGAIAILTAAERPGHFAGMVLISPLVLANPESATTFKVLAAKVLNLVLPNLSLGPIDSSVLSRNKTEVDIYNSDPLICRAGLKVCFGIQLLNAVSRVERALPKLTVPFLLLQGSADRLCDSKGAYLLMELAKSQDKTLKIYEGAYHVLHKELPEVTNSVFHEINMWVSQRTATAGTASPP
Compounds of formula (II) were profiled for MAGL inhibitory activity by determining the enzymatic activity by following the hydrolysis of the natural substrate 2-arachidonoylglycerol (2-AG) resulting in arachidonic acid, which can be followed by mass spectrometry. This assay is hereinafter abbreviated “2-AG assay”. The 2-AG assay was carried out in 384 well polypropylene assay plates. Compound dilutions were made in 100% DMSO in a polypropylene plate in 3-fold dilution steps to give a final concentration range in the assay from 12.5 μM to 0.8 pM. Compound dilutions were added to MAGL protein in assay buffer (50 mM TRIS, 1 mM EDTA, 0.01% (v/v) Tween-20, 2.5% (v/v) DMSO). After shaking, the plate was incubated for 15 min at RT. To start the reaction, 2-arachidonoylglycerol in assay buffer was added. The final concentrations in the assay was 50 pM for MAGL protein and […] 2-arachidonoylglyerol. After shaking and 30 min incubation at RT, the reaction was quenched by the addition of two assay volumes of acetonitrile containing 4 μM of d8-arachidonic acid. The amount of arachidonic acid formed was traced by an online SPE system (Agilent Rapidfire) coupled to a triple quadrupole mass spectrometer. A C18 SPE cartridge (Agilent G9205A) was used in an acetonitrile/water liquid setup. The mass spectrometer was operated in negative electrospray mode following the mass transitions 303.1→259.1 for arachidonic acid and 311.1→267.0 for d8-arachidonic acid. The activity of the compounds was calculated based on the ratio of intensities [arachidonic acid/d8-arachidonic acid].
`COc1cccc(C(=O)N2CCc3c(nn(C)c3-c3cc(Cl)cc(CNS(C)(=O)=O)c3)[C@H]2C)c1Cl` [Example 2, N-[[3-Chloro-5-[(7R)-6-(2-chloro-3-methoxy-benzoyl)-2,7-dimethyl-5,7-dihydro-4H-pyrazolo[3,4-c]pyridin-3-yl]phenyl]methyl]methanesulfonamide]: the IC50 turned out to be 1650 nM.

Compound `C[C@H]1c2nn(C)c(-c3cc(Cl)cc(S(N)(=O)=O)c3)c2CCN1C(=O)c1ncn(-c2ccc[nH]c2=O)n1` [Example 62, 3-Chloro-5-[(7S)-2,7-dimethyl-6-[1-(2-oxo-1H-pyridin-3 yl)-1,2,4-triazole-3-carbonyl]-5,7-dihydro-4H-pyrazolo[3,4-c]pyridin-3-yl]benzenesulfonamide] gave an IC50 of 326 nM.

The compound `C[C@@H]1c2nn(C)c(-c3cc(Cl)cc(C4(NS(C)(=O)=O)CC4)c3)c2CCN1C(=O)c1cc(F)cc(CCc2c[nH]nn2)c1Cl` [Example 89, N-[1-[3-chloro-5-[(7R)-6-[2-chloro-5-fluoro-3-[2-(1H-triazol-4-yl)ethyl]benzoyl]-2,7-dimethyl-5,7-dihydro-4H-pyrazolo[3,4-c]pyridin-3-yl]phenyl]cyclopropyl]methanesulfonamide] registered a half-maximal inhibitory concentration (IC50) of 26.8 nM.

`C[C@@H]1c2nn(C)c(-c3cc(F)cc(F)c3)c2CCN1C(=O)c1cc(F)cc(CCc2c[nH]nn2)c1Cl` [Example 105, [2-chloro-5-fluoro-3-[2-(JH-triazol-4-yl)ethyl]phenyl]-[(7R)-3-(3,5-difluorophenyl)-2,7-dimethyl-5,7-dihydro-4H-pyrazolo[3,4-c]pyridin-6-yl]methanone] displayed an IC50 of 1.01 nM.

Regarding `C[C@H]1c2nn(C)c(-c3cc(F)cc(F)c3)c2CCN1C(=O)c1cc(F)cc(OCC2CNC(=O)C2)c1Cl` (stereo in doubt) [Example 37, 4-[[2-Chloro-3-[3-(3,5-difluorophenyl)-2,7-dimethyl-5,7-dihydro-4H-pyrazolo[3,4-c]pyridine-6-carbonyl]-5-fluoro-phenoxy]methyl]pyrrolidin-2-one], the IC50 stood at 5 nM.

The compound `C[C@H]1c2nn(C)c(-c3cc(F)cc(F)c3)c2CCN1C(=O)c1ccc(CCC2CNC(=O)C2)cc1Cl` (stereo partly drawn) [Example 45, 4-[2-[3-Chloro-4-[(7S)-3-(3,5-difluorophenyl)-2,7-dimethyl-5,7-dihydro-4H-pyrazolo[3,4-c]pyridine-6-carbonyl]phenyl]ethyl]pyrrolidin-2-one] yielded an IC50 of 99 nM.

`COc1cccc(C(=O)N2CCc3c(nn(C)c3-c3cc(Cl)cc(CC(N)=O)c3)[C@@H]2C)c1Cl` [Example 14, 2-[3-Chloro-5-[(7S)-6-(2-chloro-3-methoxy-benzoyl)-2,7-dimethyl-5,7-dihydro-4H-pyrazolo[3,4-c]pyridin-3-yl]phenyl]acetamide] registered an IC50 of 41 nM.

In turn, `COc1cccc(C(=O)N2CCc3c(nn(C)c3-c3cc(Cl)cc(CC(C)(C)O)c3)[C@@H]2C)c1Cl` [Example 95, [(7S)-3-[3-chloro-5-(2-hydroxy-2-methyl-propyl)phenyl]-2,7-dimethyl-5,7-dihydro-4H-pyrazolo[3,4-c]pyridin-6-yl]-(2-chloro-3-methoxy-phenyl)methanone] yielded a concentration for half-maximal inhibition (IC50) of 16.9 nM.

Regarding `C[C@H]1c2nn(C)c(-c3cc(F)cc(F)c3)c2CCN1C(=O)c1cc(F)cc(C2=CC(Cl)C(=O)N=C2)c1Cl` (stereo partly drawn) [Example 98, 3-chloro-5-[2-chloro-3-[(7S)-3-(3,5-difluorophenyl)-2,7-dimethyl-5,7-dihydro-4H-pyrazolo[3,4-c]pyridine-6-carbonyl]-5-fluoro-phenyl]-3H-pyridin-2-one], inhibition was half-maximal at 5.97 nM (IC50).

Turning to `COc1cccc(C(=O)N2CCc3c(nn(C)c3-c3cnc(C(F)(F)F)nc3)[C@@H]2C)c1Cl` [Example 9, (2-Chloro-3-methoxy-phenyl)-[(7S)-2,7-dimethyl-3-[2-(trifluoromethyl)pyrimidin-5-yl]-5,7-dihydro-4H-pyrazolo[3,4-c]pyridin-6-yl]methanone], the midpoint of inhibition, the IC50, lay at 311 nM.

On to `C[C@H]1c2nn(C)c(-c3cncc(C(F)(F)F)n3)c2CCN1C(=O)c1cc(F)cc(N2CC3(C2)CS(=O)(=O)C3)c1Cl` [Example 65, [2-chloro-3-(2,2-dioxo-2λ^6-thia-6-azaspiro[3.3]heptan-6-yl)-5-fluoro-phenyl]-[(7S)-2,7-dimethyl-3-[6-(trifluoromethyl)pyrazin-2-yl]-5,7-dihydro-4H-pyrazolo[3,4-c]pyridin-6-yl]methanone], for which inhibition was half-maximal at 2830 nM (IC50).

`C[C@@H]1c2nn(C)c(-c3cncc(C(F)(F)F)n3)c2CCN1C(=O)c1ncn(-c2ccc[nH]c2=O)n1` [Example 96, 3-[3-[(7R)-2,7-dimethyl-3-[6-(trifluoromethyl)pyrazin-2-yl]-5,7-dihydro-4H-pyrazolo[3,4-c]pyridine-6-carbonyl]-1,2,4-triazol-1-yl]-1H-pyridin-2-one] returned an IC50 of 1260 nM.

`C[C@H]1c2nn(C)c(-c3cc(Cl)cc(C4(S(C)(=O)=O)CC4)c3)c2CCN1C(=O)c1ncn(-c2ccc[nH]c2=O)n1` [Example 78, 3-[3-[(7S)-3-[3-chloro-5-(1-methylsulfonylcyclopropyl)phenyl]-2,7-dimethyl-5,7-dihydro-4H-pyrazolo[3,4-c]pyridine-6-carbonyl]-1,2,4-triazol-1-yl]-1H-pyridin-2-one] returned a 50% inhibitory concentration (IC50) of 275 nM.

`CC1c2nn(C)c(-c3cc(F)cc(F)c3)c2CCN1C(=O)c1cc(F)cc(N2CC3(C2)CS(=O)(=O)C3)c1Cl` (centres unmarked) [Example 19, [2-Chloro-3-(2,2-dioxo-2λ^6-thia-6-azaspiro[3.3]heptan-6-yl)-5-fluoro-phenyl]-[3-(3,5-difluorophenyl)-2,7-dimethyl-5,7-dihydro-4H-pyrazolo[3,4-c]pyridine-6-yl]methanone] registered an IC50 of 41 nM.

The compound `C=S(N)(=O)c1cc(Cl)cc(-c2c3c(nn2C)C(C)N(C(=O)c2cc(F)cc(-c4ccc(=O)[nH]c4)c2Cl)CC3)c1` (centres unmarked) [Example 56] displayed a 50% inhibitory concentration (IC50) of 12 nM.

The compound `C[C@H]1c2nn(C)c(-c3cc(F)cc(F)c3)c2CCN1C(=O)c1cc(F)cc(-c2c[nH]c(C#N)c2)c1` [Example 53, 4-[3-[(7S)-3-(3,5-Difluorophenyl)-2,7-dimethyl-5,7-dihydro-4H-pyrazolo[3,4-c]pyridine-6-carbonyl]-5-fluorophenyl]-1H-pyrrole-2-carbonitrile] came in with a half-maximal inhibitory concentration (IC50) of 3 nM.

Compound `C[C@H]1c2nn(C)c(-c3cc(F)cc(F)c3)c2CCN1C(=O)c1cc(F)cc(N2CC(S(C)(=O)=O)C2)c1Cl` [Example 23, [2-Chloro-5-fluoro-3-(3-methylsulfonylazetidin-1-yl)phenyl]-[(7S)-3-(3,5-difluorophenyl)-2,7-dimethyl-5,7-dihydro-4H-pyrazolo[3,4-c]pyridin-6-yl]methanone] registered a half-inhibitory concentration (IC50) of 27 nM.

As to `C[C@@H]1c2nn(C)c(-c3cc(F)cc(F)c3)c2CCN1C(=O)c1ncn(-c2cc(Cl)cnc2O)n1` [Example 101, [1-(5-chloro-2-hydroxy-3-pyridyl)-1,2,4-triazol-3-yl]-[(7R)-3-(3,5-difluorophenyl)-2,7-dimethyl-5,7-dihydro-4H-pyrazolo[3,4-c]pyridin-6-yl]methanone], 3020 nM corresponded to half-maximal inhibition (IC50).

`COc1cccc(C(=O)N2CCc3c(nn(C)c3-c3cncc(CC(N)=O)c3)[C@@H]2C)c1Cl` [Example 18, 2-[5-[(7S)-6-(2-Chloro-3-methoxy-benzoyl)-2,7-dimethyl-5,7-dihydro-4H-pyrazolo[3,4-c]pyridin-3-yl]-3-pyridyl]acetamide] showed a half-maximal inhibitory concentration (IC50) of 3080 nM.

The compound `CC1c2nn(C)c(-c3cc(Cl)cc(S(N)(=O)=O)c3)c2CCN1C(=O)c1ncn(-c2ccc[nH]c2=O)n1` (centres unmarked) [Example 59, 3-Chloro-5-[2,7-dimethyl-6-[1-(2-oxo-1H-pyridin-3-yl)-1,2,4-triazole-3-carbonyl]-5,7-dihydro-4H-pyrazolo[3,4-c]pyridin-3-yl]benzenesulfonamide] had an IC50 of 1070 nM.

For `CC1c2nn(C)c(-c3cc(F)cc(F)c3)c2CCN1C(=O)c1cc(F)cc(OCC2CNC(=O)C2)c1Cl` (single isomer, unassigned) [Example 38, 4-[[2-Chloro-3-[3-(3,5-difluorophenyl)-2,7-dimethyl-5,7-dihydro-4H-pyrazolo[3,4-c]pyridine-6-carbonyl]-5-fluoro-phenoxy]methyl]pyrrolidin-2-one], the IC50 is 0.5 nM.

Turning to `COc1cccc(C(=O)N2CCc3c(nn(C)c3-c3cc(Cl)cc(S(N)(=O)=O)c3)[C@@H]2C)c1Cl` [Example 4, 3-Chloro-5-[(7S)-6-(2-chloro-3-methoxy-benzoyl)-2,7-dimethyl-5,7-dihydro-4H-pyrazolo[3,4-c]pyridin-3-yl]benzenesulfonamide], inhibition was half-maximal at 27 nM (IC50).

In turn, `C[C@H]1c2nn(C)c(-c3cc(F)cc(F)c3)c2CCN1C(=O)c1cc(F)cc(OCC2CNC(=O)O2)c1Cl` (single isomer, unassigned) [Example 50, 5-[[2-Chloro-3-[3-(3,5-difluorophenyl)-2,7-dimethyl-5,7-dihydro-4H-pyrazolo[3,4-c]pyridine-6-carbonyl]-5-fluoro-phenoxy]methyl]oxazolidin-2-one] showed an IC50 of 5 nM.
